Each compound was assayed on SK-BR-3 (assay: Cytotoxicity against human SKBR3 cells at 10 uM after 72 hrs by MTT assay). Details: not given.
Type: functional
Compound COc1ccc2[nH]c(=O)c(CN(CCc3cccc(C)c3)C(C)=O)cc2c1 has an Activity of 5%.
Work on CCOC(=O)c1ccc(Nc2c([N+](=O)[O-])c(=O)oc3ccccc23)cc1 yielded an Activity of 5%.
Compound COc1cccc(OC)c1C(=O)Nc1ccc2c(c1)OCC(=O)N2Cc1ccccc1Cl has an Activity of 2%.
In the case of CCOC(=O)c1ccc(Nc2cc(C)nc3ncnn23)cc1, the Activity is reported as 1%.
With c1ccc2c(NCCCNc3ncnc4ccccc34)ncnc2c1 the Activity was 32%.
O=C(CSc1ncnc2sc3c(c12)CCCC3)NCc1cccc2c1OCO2 gave an Activity of 16%.
Compound Cc1cc(O)nc(SCC(=O)Nc2ccc(C(=O)NC3CCCCC3)cc2)n1 has an Activity of 21%.
CC1CCc2c(sc3ncnc(NCc4ccco4)c23)C1 (stereo unspecified) showed an Activity of 2%.
For CCc1ccccc1NC(=O)NCCCNc1nc2cc(C)cc(C)c2cc1C#N, the Activity was 29%.
In the case of COc1ccc(-c2nc3cc(NC(=O)COc4ccc(C)cc4C)ccc3o2)cc1Br, the Activity is reported as 32%.
With CCC(C)(C)C1CCc2sc3ncnc(N/N=C(\C)c4ccc(OC)cc4)c3c2C1 (stereo unspecified) the Activity was 12%.
Cc1cc(Nc2ccc(N3CCC(C)CC3)cc2)n2ncnc2n1 was tested, and the Activity was 25%.
Compound CCOc1ccc(Nc2nc(NCCO)nc(C)c2[N+](=O)[O-])cc1 has an Activity of 32%.
Work on Cc1ccc2[nH]cc(CCNC(=O)c3cccnc3)c2c1 yielded an Activity of 1%.
Cc1cc2cc(CN(Cc3cccs3)C(=O)Nc3ccccc3F)c(=O)[nH]c2cc1C gave an Activity of 19%.
With CCOC(=O)c1c(-c2ccccc2)csc1NC(=O)CSc1ncnc2sc3c(c12)CCCC3 the Activity was 11%.
Cc1nn(-c2ccccc2)c2sc(C(=O)N(CC(=O)NC3CCCC3)C3CC3)cc12 gave an Activity of 22%.
Work on CCOc1ccc(Nc2c3c(nc4ncnn24)CCC3)cc1 yielded an Activity of 26%.
In the case of Clc1cc(Nc2c3ccccc3nc3ccccc23)ccc1Oc1ccc2ccccc2c1Br, the Activity is reported as 3%.
For COC(=O)c1sc(NC(=O)CSc2nc(C3CC3)nc3sc4c(c23)CCCC4)nc1C, the Activity was 31%.
For O=C(CSc1ncnc2sc3c(c12)CCC3)Nc1ccc(S(=O)(=O)N2CCOCC2)cc1, the Activity was 12%.
Compound Cc1ccc(S(=O)(=O)N(Cc2ccc3c(c2)OCO3)Cc2cc3ccc(C)c(C)c3[nH]c2=O)cc1 has an Activity of 12%.
Compound O=C(CSc1ncnc2sc3c(c12)CCCC3)Nc1nc(-c2ccccc2)cs1 has an Activity of 34%.
O=C(CSc1ncnc2sc3c(c12)CCCC3)Nc1ccc(S(=O)(=O)N2CCCCCC2)cc1 was tested, and the Activity was 11%.
For O=C(NC1CCCC1)C(c1cccs1)N(C(=O)Cc1cccs1)c1ccc2c(c1)OCCO2 (stereo unspecified), the Activity was 16%.
In the case of O=C(Nc1cccc(NC(=O)c2ccc(Cl)cc2Cl)c1)c1cccnc1, the Activity is reported as 2%.
For Cc1nc2cc(NCc3ccccc3O)ccc2n1Cc1ccccc1, the Activity was 13%.
In the case of COc1cccc(-c2cc3cc4c(c(NCc5cc(OC)c(OC)c(OC)c5)n3n2)CCC4)c1, the Activity is reported as 4%.
Work on COc1ccc(CN(CC(=O)NC2CCCC2)C(=O)Cn2cnc3sc(C)c(C)c3c2=O)cc1 yielded an Activity of 21%.
Work on O=C(Nc1ccc(Oc2ccc3nsnc3c2)c(Cl)c1)c1cc(Cl)ccc1O yielded an Activity of 30%.
With COc1cc(CNCc2cccnc2)ccc1OCc1ccccc1Cl the Activity was 1%.
For COc1ccc(NC(=O)Cn2nnc(-c3ccccc3NC(=O)c3cccs3)n2)cc1, the Activity was 27%.
In the case of Cc1ccc2[nH]c(=O)c(CN(Cc3cccs3)C(=O)c3ccco3)cc2c1, the Activity is reported as 22%.
In the case of CCOc1ccc(OCC)c(NC(=O)CSc2nc3c(C)cccc3cc2C#N)c1, the Activity is reported as 16%.
Work on Cc1sc(NC(=O)CSc2ncnc3sc4c(c23)CCCC4)c(C#N)c1C yielded an Activity of 26%.
In the case of O=[N+]([O-])c1ccccc1-c1nnc(CSc2ncnc3sc4c(c23)CCCC4)o1, the Activity is reported as 7%.
In the case of Cc1ccc(-c2csc3ncnc(SCC(=O)Nc4nc(-c5ccccc5)cs4)c23)cc1, the Activity is reported as 33%.
COc1cc(OCC(=O)Nc2cccc([N+](=O)[O-])c2)ccc1/C=N/Nc1ncnc2sc3c(c12)CCCC3 showed an Activity of 7%.
CCn1nnnc1SCC(=O)Nc1ccc(OCc2ccccc2)cc1 was tested, and the Activity was 19%.
In the case of COc1cc(/C=N/Nc2ncnc3sc4c(c23)CCCC4)ccc1OCC(=O)Nc1ccccc1, the Activity is reported as 32%.
COc1cc(NC(=O)CSc2nnnn2-c2ccc3c(c2)OCCO3)cc(OC)c1 was tested, and the Activity was 15%.
For c1cncc(CNc2ncnc3ccccc23)c1, the Activity was 15%.
In the case of COc1ccc(CCNc2c(Cc3ccccc3)c(C)nc3ncnn23)cc1OC, the Activity is reported as 21%.
For O=C(Nc1ncnc2sc3c(c12)CCC3)c1cccs1, the Activity was 20%.
In the case of O=C(CSc1ncnc2sc3c(c12)CCCC3)Nc1nc(-c2ccc(F)cc2)cs1, the Activity is reported as 32%.

These compounds were tested on SK-BR-3 (assay: Cytotoxicity against human SKBr3 cells after 72 hrs by MTT assay). Details: SK-BR-3, 72 h.
Type: functional, cell-based
CCN(CC)CCNc1ccc(Nc2ccnc3cc4ccccc4cc23)cc1 was tested, and the IC50 was 2 µM.
CCN(CC)c1ccc(NC(=O)CSc2ncnc3sc(C)c(C)c23)cc1C showed an IC50 of 16 µM.
For c1ccc(OCCOc2ccc(Nc3ccnc4cc5ccccc5cc34)cc2)cc1, the IC50 was 2 µM.
Compound Brc1ccc2ncnc(NCCc3ccccc3)c2c1 has an IC50 of 15 µM.
For COc1ccc(CCNc2cc(-c3ccccc3)nc3ncnn23)cc1, the IC50 was 9 µM.
Compound COc1ccc2nc(C)cc(Nc3ccc(Oc4ccc(Cl)cc4)c(Cl)c3)c2c1 has an IC50 of 5 µM.
For CN1CCN(CCCNc2ccnc3cc4ccccc4cc23)CC1, the IC50 was 15 µM.
COc1ccc2nc(C)cc(Nc3ccc(Oc4ccc5ccccc5c4)c(Cl)c3)c2c1 showed an IC50 of 5 µM.
Fc1ccccc1CCNc1c2c(nc3ncnn13)CCCC2 gave an IC50 of 14 µM.
c1ccc(CCNc2ccnc3cc4ccccc4cc23)cc1 was tested, and the IC50 was 8 µM.
In the case of CN1CCN(c2ccc(Nc3ncnc4sc5c(c34)CCCC5)cc2)CC1, the IC50 is reported as 9 µM.
Work on CCc1cc2c(NCCc3ccc(OC)c(OC)c3)ncnc2s1 yielded an IC50 of 14 µM.

Each compound was assayed against Receptor tyrosine-protein kinase erbB-2 (Homo sapiens, UniProt P04626) (assay: Inhibition of HER2). Details: not given.
Chain of Receptor tyrosine-protein kinase erbB-2 (P04626 whole entry): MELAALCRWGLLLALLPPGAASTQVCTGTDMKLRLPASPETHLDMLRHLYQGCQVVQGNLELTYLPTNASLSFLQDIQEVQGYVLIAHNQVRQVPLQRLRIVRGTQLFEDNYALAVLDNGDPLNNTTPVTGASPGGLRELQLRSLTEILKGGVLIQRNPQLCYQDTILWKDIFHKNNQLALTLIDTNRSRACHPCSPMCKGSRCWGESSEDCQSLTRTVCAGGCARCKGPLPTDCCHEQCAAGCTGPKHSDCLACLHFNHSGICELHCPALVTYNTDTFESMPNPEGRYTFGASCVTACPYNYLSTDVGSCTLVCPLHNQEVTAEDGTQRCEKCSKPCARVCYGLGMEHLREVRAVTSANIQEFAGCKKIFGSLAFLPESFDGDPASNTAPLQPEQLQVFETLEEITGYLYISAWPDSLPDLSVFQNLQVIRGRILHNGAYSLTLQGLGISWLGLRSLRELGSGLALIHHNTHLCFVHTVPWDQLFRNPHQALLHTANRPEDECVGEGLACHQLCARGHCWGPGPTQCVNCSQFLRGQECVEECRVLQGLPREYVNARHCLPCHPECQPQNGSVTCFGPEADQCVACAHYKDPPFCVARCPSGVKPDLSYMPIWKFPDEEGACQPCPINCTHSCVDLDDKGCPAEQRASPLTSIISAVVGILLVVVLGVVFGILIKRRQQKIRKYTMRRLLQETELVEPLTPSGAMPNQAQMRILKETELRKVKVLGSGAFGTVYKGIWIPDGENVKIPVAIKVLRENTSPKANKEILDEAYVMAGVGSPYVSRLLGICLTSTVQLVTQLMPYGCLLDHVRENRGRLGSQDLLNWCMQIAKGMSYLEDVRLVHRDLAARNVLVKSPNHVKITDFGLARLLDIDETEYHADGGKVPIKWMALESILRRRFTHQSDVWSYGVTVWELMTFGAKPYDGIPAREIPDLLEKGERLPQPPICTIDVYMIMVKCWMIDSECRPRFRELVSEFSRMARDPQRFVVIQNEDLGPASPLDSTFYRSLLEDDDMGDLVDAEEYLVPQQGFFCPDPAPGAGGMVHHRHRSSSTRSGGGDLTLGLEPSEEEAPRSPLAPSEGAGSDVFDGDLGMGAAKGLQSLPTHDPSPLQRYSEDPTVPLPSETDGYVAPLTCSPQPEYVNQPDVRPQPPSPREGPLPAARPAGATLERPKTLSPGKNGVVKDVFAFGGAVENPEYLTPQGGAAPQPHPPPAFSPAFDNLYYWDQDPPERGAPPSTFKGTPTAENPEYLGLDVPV
CCCCn1c(S(=O)(=O)c2cc(OC)c(OC)c(OC)c2)nc2c(N)ncnc21 was tested, and the IC50 was 310 µM.
With Nc1ncnc2nc(Sc3cc(Cl)ccc3Cl)[nH]c12 the IC50 was 120 µM.
Compound COCOCC#CC(=O)Nc1ccc2ncnc(Nc3cccc(Br)c3)c2c1 has an IC50 of 0.009 µM.
Compound CS(=O)(=O)CCNCc1nc(-c2ccc3ncnc(Nc4ccc(OCc5cccc(F)c5)c(Cl)c4)c3c2)cs1 has an IC50 of 0.01 µM.
Work on COCC(=O)NC/C=C/c1ccc2ncnc(Nc3ccc(Oc4ccc(C)nc4)c(C)c3)c2c1 [CP-724714] yielded an IC50 of 0.012 µM.
Work on CONC(=O)c1ccc(F)c(Nc2ncnn3cc(NC(=O)OCCCS(C)(=O)=O)c(C(C)C)c23)c1 yielded an IC50 of 5.3 µM.
Work on c1ccc(Oc2ccc(Nc3ccnc4ccccc34)cc2)cc1 yielded an IC50 of 0.733 µM.
Cc1cc2nc(CBr)c(-c3ccccc3)nc2cc1C showed an IC50 of 21 µM.
Work on COc1cc2nccc(Nc3ccc(N4C(=O)c5ccc(Cl)cc5C4=O)c(C)c3)c2cc1OC yielded an IC50 of 1.7 µM.

Source: ChEMBL document CHEMBL1150417, “Discovery of novel small-molecule inhibitors of human epidermal growth factor receptor-2: combined ligand and target-based approach” (J Med Chem, 2008)
